Laboratory results reported in the supplement of paper PMC10307832.

Assays:
Test in all cases: relative viability (nuclei count vs DMSO), 5 days (fraction); higher = more cells survive
[1] = tested on: ABC-1
In short: (§1)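 A single step with final 0.05% Triton X-100, 1% formaldehyde and 1 ug/ml Hoechst fixed the cells and stained nuclei 5 days after treatment. Lung cancer cell lines in 1536-well plates had been treated by pin tool the day after seeding with one drug alone or a fixed anchor-drug dose plus five library-drug doses (not always all listed) in √10 steps, and nuclei were counted on 4× images. Relative viability is the ratio of nuclei in treated wells to nuclei in vehicle wells, taken as the median of duplicate plates.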

[2] = tested on: BEN
In short: as §1

[3] = tested on: EPLC-272H
In short: as §1

[4] = tested on: HCC-827
In short: as §1

[5] = tested on: HOP-62
In short: as §1

[6] = tested on: LU99A
In short: as §1

[7] = tested on: NCI-H1355
In short: as §1

[8] = tested on: NCI-H1666
In short: as §1

[9] = tested on: NCI-H1792
In short: as §1

[10] = tested on: NCI-H1975
In short: as §1

[11] = tested on: NCI-H2170
In short: as §1

[12] = tested on: NCI-H23
In short: as §1

[13] = tested on: NCI-H2405
In short: as §1

[14] = tested on: NCI-H3122
In short: as §1

[15] = tested on: NCI-H322M
In short: as §1

[16] = tested on: NCI-H358
In short: as §1

[17] = tested on: NCI-H520
In short: as §1

[18] = tested on: NCI-H596
In short: as §1

[19] = tested on: NCI-H647
In short: as §1

[20] = tested on: NCI-H727
In short: as §1

[21] = tested on: NCI-H838
In short: as §1

[22] = tested on: PC-14
In short: as §1

[23] = tested on: UMC-11
In short: as §1

For `O=C(O)CCCCC(CCSCc1ccccc1)SCc1ccccc1` (stereo not given) [CPI-613] + CS(=O)(=O)CCNCc1ccc(-c2ccc3ncnc(Nc4ccc(OCc5cccc(F)c5)c(Cl)c4)c3c2)o1 [Lapatinib] (partner 2 µM), the relative viability ([1]; first compound 5 µM) was 1, the relative viability ([1]; first compound 15.81 µM) was 0.948 and the relative viability ([1]; first compound 50 µM) was 1.33. The relative viability ([1]; first compound 158.11 µM) was 1.27, the relative viability ([1]; first compound 500 µM) was 1.57 and the relative viability ([2]; first compound 5 µM) was 0.673. For the same compound, the relative viability ([2]; first compound 15.81 µM) was 0.577, the relative viability ([2]; first compound 50 µM) was 0.526 and the relative viability ([2]; first compound 158.11 µM) was 0.502. It also gave a relative viability ([2]; first compound 500 µM) of 0.624, a relative viability ([3]; first compound 5 µM) of 0.905 and a relative viability ([3]; first compound 15.81 µM) of 0.828. The relative viability ([3]; first compound 50 µM) was 0.879, the relative viability ([3]; first compound 158.11 µM) was 1 and the relative viability ([3]; first compound 500 µM) was 0.857. For the same compound, the relative viability ([4]; first compound 5 µM) was 0.212, the relative viability ([4]; first compound 15.81 µM) was 0.181 and the relative viability ([4]; first compound 50 µM) was 0.196. For the same compound, the relative viability ([4]; first compound 158.11 µM) was 0.173, the relative viability ([4]; first compound 500 µM) was 0.0605 and the relative viability ([5]; first compound 5 µM) was 1.06. The relative viability ([5]; first compound 15.81 µM) was 0.855, the relative viability ([5]; first compound 50 µM) was 0.935 and the relative viability ([5]; first compound 158.11 µM) was 0.804. The relative viability ([5]; first compound 500 µM) was 0.107, the relative viability ([6]; first compound 5 µM) was 0.937 and the relative viability ([6]; first compound 15.81 µM) was 0.918. For the same compound, the relative viability ([6]; first compound 50 µM) was 0.887, the relative viability ([6]; first compound 158.11 µM) was 0.608 and the relative viability ([6]; first compound 500 µM) was 0.0424. The relative viability ([7]; first compound 5 µM) was 1.02, the relative viability ([7]; first compound 15.81 µM) was 0.872 and the relative viability ([7]; first compound 50 µM) was 0.979. The relative viability ([7]; first compound 158.11 µM) was 0.642, the relative viability ([7]; first compound 500 µM) was 0.589 and the relative viability ([8]; first compound 5 µM) was 0.629. The relative viability ([8]; first compound 15.81 µM) was 0.555, the relative viability ([8]; first compound 50 µM) was 0.656 and the relative viability ([8]; first compound 158.11 µM) was 0.162. For the same compound, the relative viability ([8]; first compound 500 µM) was 0.109, the relative viability ([9]; first compound 5 µM) was 0.841 and the relative viability ([9]; first compound 15.81 µM) was 0.846. The relative viability ([9]; first compound 50 µM) was 0.838, the relative viability ([9]; first compound 158.11 µM) was 0.72 and the relative viability ([9]; first compound 500 µM) was 0.9. It also gave a relative viability ([10]; first compound 5 µM) of 0.89, a relative viability ([10]; first compound 15.81 µM) of 0.832 and a relative viability ([10]; first compound 50 µM) of 0.821. It also gave a relative viability ([10]; first compound 158.11 µM) of 0.824, a relative viability ([10]; first compound 500 µM) of 0.0608 and a relative viability ([11]; first compound 5 µM) of 0.259. For the same compound, the relative viability ([11]; first compound 15.81 µM) was 0.273, the relative viability ([11]; first compound 50 µM) was 0.249 and the relative viability ([11]; first compound 158.11 µM) was 0.261. It also gave a relative viability ([11]; first compound 500 µM) of 0.188, a relative viability ([12]; first compound 5 µM) of 0.95 and a relative viability ([12]; first compound 15.81 µM) of 0.812. For the same compound, the relative viability ([12]; first compound 50 µM) was 0.873, the relative viability ([12]; first compound 158.11 µM) was 0.261 and the relative viability ([12]; first compound 500 µM) was 0.0192. The relative viability ([13]; first compound 5 µM) was 1.09, the relative viability ([13]; first compound 15.81 µM) was 1.12 and the relative viability ([13]; first compound 50 µM) was 1.09. It also gave a relative viability ([13]; first compound 158.11 µM) of 0.979, a relative viability ([13]; first compound 500 µM) of 0.902 and a relative viability ([14]; first compound 5 µM) of 1.02. The relative viability ([14]; first compound 15.81 µM) was 0.971, the relative viability ([14]; first compound 50 µM) was 0.994 and the relative viability ([14]; first compound 158.11 µM) was 0.856. For the same compound, the relative viability ([14]; first compound 500 µM) was 0.0332, the relative viability ([15]; first compound 5 µM) was 0.577 and the relative viability ([15]; first compound 15.81 µM) was 0.485. The relative viability ([15]; first compound 50 µM) was 0.572, the relative viability ([15]; first compound 158.11 µM) was 0.552 and the relative viability ([15]; first compound 500 µM) was 0.707. For the same compound, the relative viability ([16]; first compound 5 µM) was 0.416, the relative viability ([16]; first compound 15.81 µM) was 0.436 and the relative viability ([16]; first compound 50 µM) was 0.409. For the same compound, the relative viability ([16]; first compound 158.11 µM) was 0.296, the relative viability ([16]; first compound 500 µM) was 0.0347 and the relative viability ([17]; first compound 5 µM) was 0.887. It also gave a relative viability ([17]; first compound 15.81 µM) of 0.634, a relative viability ([17]; first compound 50 µM) of 0.912 and a relative viability ([17]; first compound 158.11 µM) of 0.264. For the same compound, the relative viability ([17]; first compound 500 µM) was 0.103, the relative viability ([18]; first compound 5 µM) was 1.01 and the relative viability ([18]; first compound 15.81 µM) was 1.05. The relative viability ([18]; first compound 50 µM) was 1.02, the relative viability ([18]; first compound 158.11 µM) was 1.05 and the relative viability ([18]; first compound 500 µM) was 0.0407. It also gave a relative viability ([19]; first compound 5 µM) of 0.962, a relative viability ([19]; first compound 15.81 µM) of 0.698 and a relative viability ([19]; first compound 50 µM) of 0.757. The relative viability ([19]; first compound 158.11 µM) was 0.27, the relative viability ([19]; first compound 500 µM) was 0.0102 and the relative viability ([20]; first compound 5 µM) was 0.739. The relative viability ([20]; first compound 15.81 µM) was 0.609, the relative viability ([20]; first compound 50 µM) was 0.683 and the relative viability ([20]; first compound 158.11 µM) was 0.673. The relative viability ([20]; first compound 500 µM) was 0.0973, the relative viability ([21]; first compound 5 µM) was 0.862 and the relative viability ([21]; first compound 15.81 µM) was 0.783. The relative viability ([21]; first compound 50 µM) was 0.846, the relative viability ([21]; first compound 158.11 µM) was 0.601 and the relative viability ([21]; first compound 500 µM) was 0.0634. For the same compound, the relative viability ([22]; first compound 5 µM) was 0.347, the relative viability ([22]; first compound 15.81 µM) was 0.307 and the relative viability ([22]; first compound 50 µM) was 0.303. It also gave a relative viability ([22]; first compound 158.11 µM) of 0.251, a relative viability ([22]; first compound 500 µM) of 0.259 and a relative viability ([23]; first compound 5 µM) of 1.08. It also gave a relative viability ([23]; first compound 15.81 µM) of 1.11, a relative viability ([23]; first compound 50 µM) of 0.789 and a relative viability ([23]; first compound 158.11 µM) of 0.438. It also gave a relative viability ([23]; first compound 500 µM) of 0.119.
